{"source": "patent US20230085307A1", "about": "“PYRIDAZINONE COMPOUND AND HERBICIDE” (NISSAN CHEMICAL CORPORATION, priority 2019, published 2023)", "key": {"windgrass": {"tested_on": "windgrass", "assay": "Test Example 5: herbicidal effect by foliage application, plastic box (Table 20, symbol L)", "assay_type": "in vivo, windgrass (Apera spica-venti)", "settings": "foliage application, 320 g/ha, three weeks after application", "method_in_brief": "(§1)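 Foliar spray test: emulsion formulation diluted in water to a set application rate, sprayed onto 14-day-old plants raised in diluvial soil at 25° C to 30° C under glass. Both herbicidal effect and crop effect rated visually three weeks later.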"}, "velvetleaf": {"tested_on": "velvetleaf", "assay": "Test Example 5: herbicidal effect by foliage application, plastic box (Table 20, symbol M)", "assay_type": "in vivo, velvetleaf (Abutilon theophrasti)", "settings": "foliage application, 320 g/ha, three weeks after application", "method_in_brief": "as §1"}, "transplanted rice": {"tested_on": "transplanted rice", "assay": "Test Example 1: effect on crop, application before weed generation under submerged conditions (Table 16, symbol a)", "assay_type": "in vivo", "settings": "amount of applied herbicide 320 g/ha", "from_the_text": "[Test Example 1] Herbicidal Activity Test by Application before Weed Generation under Submerged Conditions After alluvial soil was placed into 1/10000 are of Wagner pot, water was poured and mixed to form a submerged condition having a water depth of 4 cm. Seeds of late watergrass, Japanese bulrush, and oval-leafed pondweed were sowed in a mixed manner in the aforementioned pot, and then 2.5 leaf stage rice plant seedlings were transplanted thereto. On the day of sowing seeds, the emulsion agent of the compound of the present invention prepared according to Formulation Example 2 was diluted with water so as to achieve a predetermined herbicide amount, and the diluted emulsion agent was applied to the surface of the water. The pot was placed in a greenhouse at 25° C. to 30° C. for growth of the plants. Three weeks after the herbicide application, the effect of the herbicide on each plant was evaluated according to the following criteria. Evaluation Criteria 5: Herbicidal rate of 90% or more (almost completely withered) 4: Herbicidal rate of 70% or more and less than 90% 3: Herbicidal rate of 40% or more and less than 70% 2: Herbicidal rate of 20% or more and less than 40% 1: Herbicidal rate of 5% or more and less than 20% 0: Herbicidal rate of 5% or less (almost no effect)"}, "late watergrass": {"tested_on": "late watergrass", "assay": "Test Example 1: herbicidal activity, application before weed generation under submerged conditions (Table 16, symbol A)", "assay_type": "in vivo, late watergrass (Echinochloa oryzicola)", "settings": "amount of applied herbicide 320 g/ha", "method_in_brief": "(§2)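 Emulsion formulation, water-diluted to set dose, was put onto the flooded surface (4 cm depth, alluvial soil) the same day weeds were sown and 2.5-leaf rice transplanted. After 3 weeks at 25-30 °C under glass, each species was rated 0 (≤5% kill) to 5 (≥90% kill).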"}, "redroot pigweed": {"tested_on": "redroot pigweed", "assay": "Test Example 5: herbicidal effect by foliage application, plastic box (Table 20, symbol N)", "assay_type": "in vivo, redroot pigweed (Amaranthus retroflexus)", "settings": "foliage application, 320 g/ha, three weeks after application", "method_in_brief": "as §1"}, "blackgrass": {"tested_on": "blackgrass", "assay": "Test Example 5: herbicidal effect by foliage application, plastic box (Table 20, symbol J)", "assay_type": "in vivo, blackgrass (Alopecurus myosuroides)", "settings": "foliage application, 320 g/ha, three weeks after application", "method_in_brief": "as §1"}, "wild oat": {"tested_on": "wild oat", "assay": "Test Example 5: herbicidal effect by foliage application, plastic box (Table 20, symbol I)", "assay_type": "in vivo, wild oat (Avena fatua)", "settings": "foliage application, 320 g/ha, three weeks after application", "method_in_brief": "as §1"}, "directly sowed rice": {"tested_on": "directly sowed rice", "assay": "Test Example 3: effect on crop by foliage application, Wagner pot (Table 18, symbol b)", "assay_type": "in vivo", "settings": "320 g/ha", "method_in_brief": "(§3)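 Plants were sown in alluvial soil held under 0.1–0.5 cm standing water and grown 14 days in a greenhouse at 25–30 °C. An emulsifiable formulation, water-diluted to the set dose, was then sprayed onto the foliage, and effects were scored three weeks later using previously defined criteria.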"}, "southern crabgrass": {"tested_on": "southern crabgrass", "assay": "Test Example 5: herbicidal effect by foliage application, plastic box (Table 20, symbol F)", "assay_type": "in vivo, southern crabgrass (Digitaria ciliaris)", "settings": "foliage application, 320 g/ha, three weeks after application", "method_in_brief": "as §1"}, "wheat": {"tested_on": "wheat", "assay": "Test Example 5: effect on crop by foliage application, plastic box (Table 20, symbol e)", "assay_type": "in vivo", "settings": "320 g/ha, three weeks after application", "method_in_brief": "as §1"}, "soybean": {"tested_on": "soybean", "assay": "Test Example 5: effect on crop by foliage application, plastic box (Table 20, symbol d)", "assay_type": "in vivo", "settings": "320 g/ha, three weeks after application", "method_in_brief": "as §1"}, "rapeseed": {"tested_on": "rapeseed", "assay": "Test Example 5: effect on crop by foliage application, plastic box (Table 20, symbol g)", "assay_type": "in vivo", "settings": "320 g/ha, three weeks after application", "method_in_brief": "as §1"}, "Chinese sprangletop": {"tested_on": "Chinese sprangletop", "assay": "Test Example 3: herbicidal effect by foliage application, Wagner pot (Table 18, symbol D)", "assay_type": "in vivo, chinese sprangletop (Leptochloa chinensis)", "settings": "320 g/ha", "method_in_brief": "as §3"}, "Italian ryegrass": {"tested_on": "Italian ryegrass", "assay": "Test Example 5: herbicidal effect by foliage application, plastic box (Table 20, symbol K)", "assay_type": "in vivo, Italian ryegrass (Lolium multiflorum)", "settings": "foliage application, 320 g/ha, three weeks after application", "method_in_brief": "as §1"}, "green foxtail": {"tested_on": "green foxtail", "assay": "Test Example 5: herbicidal effect by foliage application, plastic box (Table 20, symbol G)", "assay_type": "in vivo, green foxtail (Setaria viridis)", "settings": "foliage application, 320 g/ha, three weeks after application", "method_in_brief": "as §1"}, "oval-leafed pondweed": {"tested_on": "oval-leafed pondweed", "assay": "Test Example 1: herbicidal activity, application before weed generation under submerged conditions (Table 16, symbol C)", "assay_type": "in vivo, oval-leafed pondweed (Monochoria vaginalis)", "settings": "amount of applied herbicide 320 g/ha", "method_in_brief": "as §2"}, "rice flat sedge": {"tested_on": "rice flat sedge", "assay": "Test Example 3: herbicidal effect by foliage application, Wagner pot (Table 18, symbol E)", "assay_type": "in vivo, rice flat sedge (Cyperus iria)", "settings": "320 g/ha", "method_in_brief": "as §3"}, "persian speedwell": {"tested_on": "persian speedwell", "assay": "Test Example 5: herbicidal effect by foliage application, plastic box (Table 20, symbol R)", "assay_type": "in vivo, Persian speedwell (Veronica persica)", "settings": "foliage application, 320 g/ha, three weeks after application", "method_in_brief": "as §1"}, "corn": {"tested_on": "corn", "assay": "Test Example 5: effect on crop by foliage application, plastic box (Table 20, symbol c)", "assay_type": "in vivo", "settings": "320 g/ha, three weeks after application", "method_in_brief": "as §1"}, "barnyard grass [1]": {"tested_on": "barnyard grass", "assay": "Test Example 5: herbicidal effect by foliage application, plastic box (Table 20, symbol H)", "assay_type": "in vivo, barnyard grass (Echinochloa crus-galli)", "settings": "foliage application, 320 g/ha, three weeks after application", "method_in_brief": "as §1"}, "lambsquarters": {"tested_on": "lambsquarters", "assay": "Test Example 5: herbicidal effect by foliage application, plastic box (Table 20, symbol O)", "assay_type": "in vivo, lambsquarters (Chenopodium album)", "settings": "foliage application, 320 g/ha, three weeks after application", "method_in_brief": "as §1"}, "barnyard grass [2]": {"tested_on": "barnyard grass", "assay": "Test Example 3: herbicidal effect by foliage application, Wagner pot (Table 18, symbol H)", "assay_type": "in vivo, barnyard grass (Echinochloa crus-galli)", "settings": "320 g/ha", "method_in_brief": "as §3"}, "chickweed": {"tested_on": "chickweed", "assay": "Test Example 5: herbicidal effect by foliage application, plastic box (Table 20, symbol P)", "assay_type": "in vivo, common chickweed (Stellaria media)", "settings": "foliage application, 320 g/ha, three weeks after application", "method_in_brief": "as §1"}, "Japanese bulrush": {"tested_on": "Japanese bulrush", "assay": "Test Example 1: herbicidal activity, application before weed generation under submerged conditions (Table 16, symbol B)", "assay_type": "in vivo, Japanese bulrush (Schoenoplectus juncoides)", "settings": "amount of applied herbicide 320 g/ha", "method_in_brief": "as §2"}, "beet": {"tested_on": "beet", "assay": "Test Example 5: effect on crop by foliage application, plastic box (Table 20, symbol f)", "assay_type": "in vivo", "settings": "320 g/ha, three weeks after application", "method_in_brief": "as §1"}}}
{"smiles": "COc1ccc2c(-c3c(O)c(N(Cc4ccccc4)Cc4ccccc4)nn(C)c3=O)c(-c3ccccc3OC)sc2c1", "note": "[Compound No. 3-086, 6-(dibenzylamino)-5-hydroxy-4-(6-methoxy-2-(2-methoxyphenyl)benzo[b]thiophen-3-yl)-2-methylpyridazin-3(2H)-one]", "values": [{"measurement": "L: windgrass, herbicidal effect grade", "setting": "windgrass", "value": "0 (Herbicidal rate of 5% or less (almost no effect))"}, {"measurement": "M: velvetleaf, herbicidal effect grade", "setting": "velvetleaf", "value": "0 (Herbicidal rate of 5% or less (almost no effect))"}, {"measurement": "Effect on crop, a: transplanted rice", "setting": "transplanted rice", "value": "0 (Herbicidal rate of 5% or less (almost no effect))"}, {"measurement": "Herbicidal effect, A: late watergrass", "setting": "late watergrass", "value": "0 (Herbicidal rate of 5% or less (almost no effect))"}, {"measurement": "N: redroot pigweed, herbicidal effect grade", "setting": "redroot pigweed", "value": "5 (Herbicidal rate of 90% or more (almost completely withered))"}, {"measurement": "J: blackgrass, herbicidal effect grade", "setting": "blackgrass", "value": "3 (Herbicidal rate of 40% or more and less than 70%)"}, {"measurement": "I: wild oat, herbicidal effect grade", "setting": "wild oat", "value": "0 (Herbicidal rate of 5% or less (almost no effect))"}, {"measurement": "effect on directly sowed rice (b)", "setting": "directly sowed rice", "value": "0 (Herbicidal rate of 5% or less (almost no effect))"}, {"measurement": "F: southern crabgrass, herbicidal effect grade", "setting": "southern crabgrass", "value": "0 (Herbicidal rate of 5% or less (almost no effect))"}, {"measurement": "e: wheat, effect on crop grade", "setting": "wheat", "value": "0 (Herbicidal rate of 5% or less (almost no effect))"}, {"measurement": "d: soybean, effect on crop grade", "setting": "soybean", "value": "3 (Herbicidal rate of 40% or more and less than 70%)"}, {"measurement": "g: rapeseed, effect on crop grade", "setting": "rapeseed", "value": "5 (Herbicidal rate of 90% or more (almost completely withered))"}, {"measurement": "herbicidal effect on Chinese sprangletop (D)", "setting": "Chinese sprangletop", "value": "0 (Herbicidal rate of 5% or less (almost no effect))"}, {"measurement": "K: Italian ryegrass, herbicidal effect grade", "setting": "Italian ryegrass", "value": "0 (Herbicidal rate of 5% or less (almost no effect))"}, {"measurement": "G: green foxtail, herbicidal effect grade", "setting": "green foxtail", "value": "0 (Herbicidal rate of 5% or less (almost no effect))"}, {"measurement": "Herbicidal effect, C: oval-leafed pondweed", "setting": "oval-leafed pondweed", "value": "0 (Herbicidal rate of 5% or less (almost no effect))"}, {"measurement": "herbicidal effect on rice flat sedge (E)", "setting": "rice flat sedge", "value": "0 (Herbicidal rate of 5% or less (almost no effect))"}, {"measurement": "R: persian speedwell, herbicidal effect grade", "setting": "persian speedwell", "value": "0 (Herbicidal rate of 5% or less (almost no effect))"}, {"measurement": "c: corn, effect on crop grade", "setting": "corn", "value": "0 (Herbicidal rate of 5% or less (almost no effect))"}, {"measurement": "H: barnyard grass, herbicidal effect grade", "setting": "barnyard grass [1]", "value": "0 (Herbicidal rate of 5% or less (almost no effect))"}, {"measurement": "melting point", "value": "163 to 166", "unit": "°C"}, {"measurement": "O: lambsquarters, herbicidal effect grade", "setting": "lambsquarters", "value": "1 (Herbicidal rate of 5% or more and less than 20%)"}, {"measurement": "herbicidal effect on barnyard grass (H)", "setting": "barnyard grass [2]", "value": "3 (Herbicidal rate of 40% or more and less than 70%)"}, {"measurement": "P: chickweed, herbicidal effect grade", "setting": "chickweed", "value": "0 (Herbicidal rate of 5% or less (almost no effect))"}, {"measurement": "Herbicidal effect, B: Japanese bulrush", "setting": "Japanese bulrush", "value": "2 (Herbicidal rate of 20% or more and less than 40%)"}, {"measurement": "f: beet, effect on crop grade", "setting": "beet", "value": "0 (Herbicidal rate of 5% or less (almost no effect))"}]}
